The first assay deals with T1, purified human HDAC6 (Homo sapiens, UniProt Q9UBN7).
T1 construct: purchased BPS Bioscience 5006
T1 sequence (Q9UBN7 1-1215): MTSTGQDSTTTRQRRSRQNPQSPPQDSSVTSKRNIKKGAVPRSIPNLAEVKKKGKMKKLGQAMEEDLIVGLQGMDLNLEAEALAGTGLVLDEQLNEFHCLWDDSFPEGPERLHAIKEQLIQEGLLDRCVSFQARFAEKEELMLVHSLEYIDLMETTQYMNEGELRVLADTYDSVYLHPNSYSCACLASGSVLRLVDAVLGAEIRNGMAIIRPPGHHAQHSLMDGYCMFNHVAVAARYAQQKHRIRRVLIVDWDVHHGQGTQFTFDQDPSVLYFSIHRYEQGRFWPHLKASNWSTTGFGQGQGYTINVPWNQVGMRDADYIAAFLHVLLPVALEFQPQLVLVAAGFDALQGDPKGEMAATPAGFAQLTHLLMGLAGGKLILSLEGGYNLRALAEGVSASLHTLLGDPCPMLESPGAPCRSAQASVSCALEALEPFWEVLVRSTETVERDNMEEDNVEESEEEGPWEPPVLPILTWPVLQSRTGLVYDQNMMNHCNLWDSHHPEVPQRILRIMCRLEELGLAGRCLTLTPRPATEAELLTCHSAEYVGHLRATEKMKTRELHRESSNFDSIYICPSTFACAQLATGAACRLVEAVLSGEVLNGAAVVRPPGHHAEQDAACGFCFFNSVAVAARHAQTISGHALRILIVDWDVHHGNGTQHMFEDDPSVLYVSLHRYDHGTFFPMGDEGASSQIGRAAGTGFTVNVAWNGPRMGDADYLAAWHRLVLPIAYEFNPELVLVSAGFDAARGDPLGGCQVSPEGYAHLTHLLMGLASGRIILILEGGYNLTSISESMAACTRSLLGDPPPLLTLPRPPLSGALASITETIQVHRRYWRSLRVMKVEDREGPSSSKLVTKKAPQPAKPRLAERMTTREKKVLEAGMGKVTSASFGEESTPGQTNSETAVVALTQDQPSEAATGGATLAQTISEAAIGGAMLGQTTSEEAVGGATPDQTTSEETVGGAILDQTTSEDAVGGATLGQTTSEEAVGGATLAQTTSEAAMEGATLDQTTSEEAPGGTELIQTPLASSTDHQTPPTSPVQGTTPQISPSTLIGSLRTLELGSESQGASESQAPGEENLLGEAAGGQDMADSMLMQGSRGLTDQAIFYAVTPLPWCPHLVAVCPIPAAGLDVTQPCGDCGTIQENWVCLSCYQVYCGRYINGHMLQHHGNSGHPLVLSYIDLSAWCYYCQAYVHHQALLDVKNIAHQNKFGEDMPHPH
The assay is described as follows: HDAC6 Enzyme Assay. The class given is biochemical. Conditions: bin: greater than 500 nM and less than 1 μM (lower bound in nM, upper bound in μM). An outline of the steps: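 Purified human HDAC6 incubated 1 h at 30 °C with Ac-Arg-Gly-Lys(Ac)-AMC and compound; trichostatin A stop, trypsin release of AMC, fluorescence Ex 340/Em 460 nm. IC50 from concentration–response relative to DMSO.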
`CC(NC(=O)C1(c2ccc(Cl)cc2)CC1)c1cccc(C(=O)NO)c1` (centres unmarked) [Compound I-183, 3-[1-({[1-(4-chlorophenyl)cyclopropyl]carbonyl}amino)ethyl]-N-hydroxybenzamide]: the IC50 (commonly the midpoint of a concentration-inhibition curve) was in the range of 500 to 1000 nM.

Staying with this assay, now noted: bin: greater than 1 μM.
Take `Cc1cc(C(=O)NO)ccc1C(C)NC(=O)C12CC3CC(CC(C3)C1)C2` (centres unmarked) [Compound I-491, N-(1-{4-[(hydroxyamino)carbonyl]-2-methylphenyl}ethyl)adamantane-1-carboxamide]: the IC50 is more than 1000 nM.
On the same count and under the same terms, the figure for `O=C(NO)c1ccc([C@@H](NC(=O)C23CC4CC(CC(C4)C2)C3)C2CC2)cc1` [Compound I-322, N-((S)-cyclopropyl{4-[(hydroxyamino)carbonyl]phenyl}methyl)adamantane-1-carboxamide] is more than 1000 nM; for `Cn1c(C(=O)NC(c2ccc(C(=O)NO)cc2)C(C)(C)C)cc2oc(-c3ccccc3)cc21` (centres unmarked) [Compound I-392, N-(1-{4-[(hydroxyamino)carbonyl]phenyl}-2,2-dimethylpropyl)-4-methyl-2-phenyl-4H-furo[3,2-b]pyrrole-5-carboxamide] it is more than 1000 nM; for `CC(NC(=O)Cc1ccc(F)cc1F)c1ccc(C(=O)NO)cc1` (centres unmarked) [Compound I-402, 4-(1-{[(2,4-difluorophenyl)acetyl]amino}ethyl)-N-hydroxybenzamide] it is more than 1000 nM.
The compound `CC(NC(=O)C1CCCCC1)c1cccc(C(=O)NO)c1` (centres unmarked) [Compound I-149, 3-{1-[(cyclohexylcarbonyl)amino]ethyl}-N-hydroxybenzamide] returned an IC50 of more than 1000 nM.
As to `COc1cc(C(=O)NO)ccc1C(C)NC(=O)C12CC3CC(CC(C3)C1)C2` (centres unmarked) [Compound I-483, N-(1-{4-[(hydroxyamino)carbonyl]-2-methoxyphenyl}ethyl)adamantane-1-carboxamide], the IC50 was more than 1000 nM.
As for `COc1ccccc1CC(=O)NC(C)c1ccc(C(=O)NO)cc1` (centres unmarked) [Compound I-34, N-hydroxy-4-(1-{[(2-methoxyphenyl)acetyl]amino}ethyl)benzamide], the half-maximal inhibitory concentration (IC50) was more than 1000 nM.
The same measure, in the same setting: to `CC(NC(=O)Cc1cccc(C(F)(F)F)c1)c1cccc(C(=O)NO)c1` (centres unmarked) [Compound I-314, N-hydroxy-3-[1-({[3-(trifluoromethyl)phenyl]acetyl}amino)ethyl]benzamide] belongs more than 1000 nM.

The same assay, now with this note: purified human HDAC6, substrate Ac-Arg-Gly-Lys(Ac)-AMC, 1 hour at 30° C.; reported as bins.
Turning to `Cc1cc(C)cc(NC(=O)NC(C)c2ccc(C(=O)NO)cc2)c1` (centres unmarked) [Compound I-397, 4-[1-({[(3,5-dimethylphenyl)amino]carbonyl}amino)ethyl]-N-hydroxybenzamide], the IC50 was less than 100 nM.
Take `CC(C)C(NC(=O)c1cc(C(C)(C)C)nn1Cc1ccccc1)c1ccc(C(=O)NO)cc1` (centres unmarked) [Compound I-77, 1-benzyl-3-tert-butyl-N-(1-{4-[(hydroxyamino)carbonyl]phenyl}-2-methylpropyl)-1H-pyrazole-5-carboxamide]: the IC50 was 100 to 500 nM.
Same read-out and setting: to `CC(C)C(NC(=O)c1cc2cc(Cl)ccc2[nH]1)c1ccc(C(=O)NO)cc1` (centres unmarked) [Compound I-247, 5-chloro-N-(1-{4-[(hydroxyamino)carbonyl]phenyl}-2-methylpropyl)-1H-indole-2-carboxamide] belongs less than 100 nM; to `CC(NC(=O)c1ccc(-c2cnco2)cc1)c1ccc(C(=O)NO)cc1` (centres unmarked) [Compound I-138, N-(1-{4-[(hydroxyamino)carbonyl]phenyl}ethyl)-4-(1,3-oxazol-5-yl)benzamide], less than 100 nM.
The same measure, in the same setting: to `CC(C)[C@@H](NC(=O)C12CC3CC(CC(O)(C3)C1)C2)c1ccc(C(=O)NO)cc1` [Compound I-223, 3-hydroxy-N-((1R)-1-{4-[(hydroxyamino)carbonyl]phenyl}-2-methylpropyl)adamantane-1-carboxamide] belongs less than 100 nM; to `CC(NC(=O)Nc1cc(Cl)ccc1Cl)c1ccc(C(=O)NO)cc1` (centres unmarked) [Compound I-89, 4-[1-({[(2,5-dichlorophenyl)amino]carbonyl}amino)ethyl]-N-hydroxybenzamide], less than 100 nM.
On the same count and under the same terms, to `CC(C)C(NC(=O)c1ccc(C(C)(C)C)cc1)c1ccc(C(=O)NO)cc1` (centres unmarked) [Compound I-192, 4-tert-butyl-N-(1-{4-[(hydroxyamino)carbonyl]phenyl}-2-methylpropyl)benzamide] belongs 100 to 500 nM; to `CC(C)(C)C(NC(=O)c1cnccn1)c1ccc(C(=O)NO)cc1` (centres unmarked) [Compound I-87, N-(1-{4-[(hydroxyamino)carbonyl]phenyl}-2,2-dimethylpropyl)pyrazine-2-carboxamide], 100 to 500 nM; to `CC(C)C(NC(=O)C1(c2ccccc2)CCCC1)c1ccc(C(=O)NO)cc1` (centres unmarked) [Compound I-258, N-hydroxy-4-(2-methyl-1-{[(1-phenylcyclopentyl)carbonyl]amino}propyl)benzamide], 100 to 500 nM.
Turning to `CC(C)(C)C(NC(=O)c1csc2ccccc12)c1ccc(C(=O)NO)cc1` (centres unmarked) [Compound I-158, N-(1-{4-[(hydroxyamino)carbonyl]phenyl}-2,2-dimethylpropyl)-1-benzothiophene-3-carboxamide], the IC50 was 100 to 500 nM.
The same measure, in the same setting: the figure for `CC(NC(=O)C1CC1)c1ccc(C(=O)NO)cc1` (centres unmarked) [Compound I-239, 4-{1-[(cyclopropylcarbonyl)amino]ethyl}-N-hydroxybenzamide] is 100 to 500 nM; for `CC(NC(=O)c1cn(C)c2ccccc12)c1cccc(C(=O)NO)c1` (centres unmarked) [Compound I-353, N-(1-{3-[(hydroxyamino)carbonyl]phenyl}ethyl)-1-methyl-1H-indole-3-carboxamide] it is 100 to 500 nM; for `COc1cc(C(=O)NO)ccc1C(C)NC(=O)c1cc2ccccc2s1` (centres unmarked) [Compound I-480, N-(1-{4-[(hydroxyamino)carbonyl]-2-methoxyphenyl}ethyl)-1-benzothiophene-2-carboxamide] it is 100 to 500 nM.
The same measure, in the same setting: to `Cc1cc(C(=O)NC(C)c2cccc(C(=O)NO)c2)nn1C` (centres unmarked) [Compound I-84, N-(1-{3-[(hydroxyamino)carbonyl]phenyl}ethyl)-1,5-dimethyl-1H-pyrazole-3-carboxamide] belongs 100 to 500 nM.
Take `O=C(NO)c1ccc([C@@H](NC(=O)c2cc3ccccc3s2)c2ccccc2)cc1` [Compound I-124, N-[(S)-{4-[(hydroxyamino)carbonyl]phenyl}(phenyl)methyl]-1-benzothiophene-2-carboxamide]: the IC50 is less than 100 nM.
Still for that read-out and setting: the figure for `Cc1[nH]c2c(C)ccc(C)c2c1CC(=O)NC(c1ccc(C(=O)NO)cc1)C(C)C` (centres unmarked) [Compound I-220, N-hydroxy-4-(2-methyl-1-{[(2,4,7-trimethyl-1H-indol-3-yl)acetyl]amino}propyl)benzamide] is 100 to 500 nM.
Still for that read-out and setting: to `Cn1c(C(=O)NC(c2ccc(C(=O)NO)cc2)C(C)(C)C)cc2ccccc21` (centres unmarked) [Compound I-364, N-(1-{4-[(hydroxyamino)carbonyl]phenyl}-2,2-dimethylpropyl)-1-methyl-1H-indole-2-carboxamide] belongs 100 to 500 nM; to `Cc1[nH]c2ccccc2c1CC(=O)NC(c1ccc(C(=O)NO)cc1)C(C)C` (centres unmarked) [Compound I-174, N-hydroxy-4-(2-methyl-1-{[(2-methyl-1H-indol-3-yl)acetyl]amino}propyl)benzamide], 100 to 500 nM; to `CC(NS(=O)(=O)Cc1ccccc1)c1ccc(C(=O)NO)cc1` (centres unmarked) [Compound I-338, 4-{1-[(benzylsulfonyl)amino]ethyl}-N-hydroxybenzamide], 100 to 500 nM.
Still for that read-out and setting: to `COc1cccc2cc(C(=O)NC(c3ccc(C(=O)NO)cc3)C(C)C)oc12` (centres unmarked) [Compound I-306, N-(1-{4-[(hydroxyamino)carbonyl]phenyl}-2-methylpropyl)-7-methoxy-1-benzofuran-2-carboxamide] belongs less than 100 nM.

Values taken from US9382197B2, “Substituted hydroxamic acids and uses thereof” (Millennium Pharmaceuticals, Inc., priority 2010, dated 2016).
